Results published in patent US11891386B2, “Indole compounds and their use” (ARIAGEN, INC., priority 2017, dated 2024).

Columns and labels:
[1] = Hepatocyte intrinsic clearance assay, human hepatocytes; type: in vitro ADME; settings: male, cryopreserved pooled human hepatocytes; Human Hepatocytes, 1 μM test compound
From the text: The liver is an important organ in the body for drug metabolism. This Example describes hepatocyte intrinsic clearance assays using both human and mouse hepatocytes to evaluate the metabolic stability of the indole compounds disclosed herein. The parameters measured include t1/2 (half-life), CLint (intrinsic clearance), and EH (hepatic extraction ratio).
Testosterone (Lot FE111011-01) was obtained from Cerilliant (Round Rock, TX). 7-hydroxycoumarin (Lot 11631ED) was obtained from Sigma Aldrich (St. Louis, MO). Cryopreserved human hepatocytes pooled from ten donor males (X008001), cryopreserved male IRC/CD-1 mouse hepatocytes (M005052), INVITROGRO HI Medium (incubation), and INVITROGRO HT Medium (thawing) were obtained from Bioreclamation IVT (Baltimore, MD). All solvents were obtained from commercial sources and used without further purification.
Each test compound was prepared as a 1 mM stock solution in DMSO. A 2 μM solution of test compound and positive controls were prepared in INVITROGRO HI Medium (incubation). These solutions were pre-warmed in a sterile incubator set to maintain 37° C., 5% CO2, and 98% humidity. Cryopreserved hepatocytes were prepared at a concentration of 2×10^6 living cells/mL in incubation media and pre-warmed in the incubator. The compound solutions and hepatocyte mixtures were then combined at a ratio of 1:1 (v:v). The final volume of the reaction mixture was 750 μL, containing 1 μM test compound (10 μM for 7-hydroxycoumarin) and […]. The reaction mixture was placed in the incubator on a plate shaker. After 0, 15, 30, 60, 90, and 120 minutes of incubation, 100 μL of reaction mixtures were removed from the incubation plate and mixed with 150 μL of ice-cold acetonitrile in a designated well of a 96-well crash plate. The 96-well crash plate was placed on ice for 15 min, and samples were centrifuged (3,600 RPM, 10 min, 4° C.) to precipitate protein. The supernatants were diluted 1:1 (v:v) with water containing 0.15 μM verapamil and/or 1 μM tolbutamide (internal standards for positive and negative modes, respectively) in a 96-well shallow injection plate. This plate was sealed for LC-MS analysis. All measurements were done in duplicate.
The residual compound remaining (% R) was determined from LC-MS peak areas by comparison to the zero time point. Metabolic half-life (t1/2) and intrinsic clearance (CLint) values were calculated from the slope of the plot of ln (% R) vs. time and the concentration of hepatocytes present in the incubation. Percent remaining at 60 minutes was calculated by plugging in the 60 minute value into the slope equation generated by the percent remaining time points.
In vivo hepatic clearance CLH was calculated using the well stirred liver model according to the following equation:
[formula] where QH is the total liver blood flow, fu is unbound fraction of the drug, and CL′int is defined as follows: CL′int=CLint×(10^6 cells/g of liver weight)×(g liver weight/kg of body weight). In the first approximation, used in this study, fu=1.
Hepatic extraction ratio EH was calculated using the following equation:
[formula] Corresponding physiological parameters used in calculations for all species are shown below in Table 5.

[2] = tested on: CYP1A1 in mouse Hepal-6 cells; test: EROD assay (7-ethoxy-resorufin-O-deethylase), mouse Hepa1-6 cells; type: cell-based; settings: for EC50: EROD assay, 20 hours treatment
Protocol: CYP1A1 induction is under the control of the AhR signaling pathway. This Example describes an in vitro assay (7-ethoxy-resorufin-O-deethylase (EROD) assay) that evaluated the AhR modulating activities of the indole compounds described herein. In this assay, the indole compounds were incubated with human HepG2 cells or mouse Hepal-6 cells. The activity of CYP1A1 in the cells was measured by the conversion of substrate 7-ethoxyresorufin, with the readout being a fluorescence signal associated with the conversion product. The EC50 values of the indole compounds as well as the maximum […] induced by them in the assay were determined.
Human HepG2 cells were obtained from Sigma Aldrich (Catalog 85011430-1VL). Mouse Hepal-6 cells also were obtained from Sigma Aldrich (Catalog 92110305-1V).
Human HepG2 and Mouse Hepal-6 cells were grown to 60-80% confluency in tissue culture flasks, lifted with non-enzymatic cell dissociation solution (cell stripper), seeded in a 384-well plate at 5,000 cells per well, treated with the test compounds, and incubated for 20 hours overnight at 37° C. The treatment medium was removed and a solution of substrate 7-ethoxyresorufin (ETX) was added to initiate the reaction. The plate was incubated at 37° C. for 30 minutes. The reaction was subsequently terminated by adding tempered methanol. Fluorescent emission was measured at 590 nm with excitation at 530 nm in a FLEXSTATION III instrument (Molecular Devices).

Structure (SMILES)	half-life at 1 μM [1] [min]	EC50 [2] [nM]	activity in the mouse EROD assay, in words [2]
COC(=O)c1csc(C(=O)c2c[nH]c3ccccc23)n1 [ARI-001, ITE]	7.8	64	–
CNC(=O)c1csc(C(=O)c2c[nH]c3ccccc23)n1 [ARI-004]	42.7	–	less active
Cc1nc(-c2csc(C(=O)c3c[nH]c4ccccc34)n2)no1 [ARI-030, (1H-indol-3-yl)(4-(5-methyl-1,2,4-oxadiazol-3-yl)thiazol-2-yl)methanone]	379	–	–
Cc1noc(-c2csc(C(=O)c3c[nH]c4ccccc34)n2)n1 [ARI-031, (1H-indol-3-yl)(4-(3-methyl-1,2,4-oxadiazol-5-yl)thiazol-2-yl)methanone]	968	–	–
CNC(=O)c1csc(C(=O)c2c[nH]c3ccc(Cl)cc23)n1 [ARI-049, 2-(5-chloro-1H-indole-3-carbonyl)-N-methylthiazole-4-carboxamide]	233	–	less active
COC(=O)c1csc(C(=O)c2c[nH]c3ccc(Cl)cc23)n1 [ARI-055, methyl 2-(5-chloro-1H-indole-3-carbonyl)thiazole-4-carboxylate]	67.3	–	less active
O=C(c1nc(-c2nnco2)cs1)c1c[nH]c2ccccc12 [ARI-056, (4-(1,3,4-oxadiazol-2-yl)thiazol-2-yl)(1H-indol-3-yl)methanone]	39.2	–	–
Cc1nnc(-c2csc(C(=O)c3c[nH]c4ccccc34)n2)o1 [ARI-060, (1H-indol-3-yl)(4-(5-methyl-1,3,4-oxadiazol-2-yl)thiazol-2-yl)methanone]	273	–	–
CNC(=O)c1csc(C(=O)c2c[nH]c3ccc(F)cc23)n1 [ARI-065, 2-(5-fluoro-1H-indole-3-carbonyl)-N-methylthiazole-4-carboxamide]	91	–	less active
COC(=O)c1csc(C(=O)c2c[nH]c3ccc(F)cc23)n1 [ARI-066, methyl 2-(5-fluoro-1H-indole-3-carbonyl)thiazole-4-carboxylate]	7	–	less active
CCC(=O)c1csc(C(=O)c2c[nH]c3ccc(Cl)cc23)n1 [ARI-067, 1-(2-(5-chloro-1H-indole-3-carbonyl)thiazol-4-yl)propan-1-one]	300	–	less active
Nc1nnc(-c2csc(C(=O)c3c[nH]c4ccccc34)n2)o1 [ARI-083, (4-(5-amino-1,3,4-oxadiazol-2-yl)thiazol-2-yl)(1H-indol-3-yl)methanone]	647	–	–
CCC(=O)c1csc(C(=O)c2c[nH]c3ccc(F)cc23)n1 [ARI-087, 1-(2-(5-fluoro-1H-indole-3-carbonyl)thiazol-4-yl)propan-1-one]	115	5.8	–
Nc1nnc(-c2csc(C(=O)c3c[nH]c4ccccc34)n2)s1 [ARI-090, (4-(5-amino-1,3,4-thiadiazol-2-yl)thiazol-2-yl)(1H-indol-3-yl)methanone]	131	–	–
Nc1nnc(-c2csc(C(=O)c3c[nH]c4c(F)cccc34)n2)o1 [ARI-118, (4-(5-amino-1,3,4-oxadiazol-2-yl)thiazol-2-yl)(7-fluoro-1H-indol-3-yl)methanone]	927	–	most active among the tested oxadiazole compounds
Nc1nnc(-c2csc(C(=O)c3c[nH]c4cc(Cl)c(Cl)cc34)n2)o1 [ARI-120, (4-(5-amino-1,3,4-oxadiazol-2-yl)thiazol-2-yl)(5,6-dichloro-1H-indol-3-yl)methanone]	921	–	most active among the tested oxadiazole compounds
CCC(=O)c1csc(C(=O)c2c[nH]c3c(F)cccc23)n1 [ARI-140, 1-(2-(7-fluoro-1H-indole-3-carbonyl)thiazol-4-yl)propan-1-one]	200	19.5	less active than ARI-002
CCC(=O)c1csc(C(=O)c2c[nH]c3cccc(F)c23)n1 [ARI-142, 1-(2-(4-fluoro-1H-indole-3-carbonyl)thiazol-4-yl)propan-1-one]	86	12.8	–
CCC(=O)c1csc(C(=O)c2c[nH]c3cc(F)ccc23)n1 [ARI-143, 1-(2-(6-fluoro-1H-indole-3-carbonyl)thiazol-4-yl)propan-1-one]	154	2.3	–
NCc1nnc(-c2csc(C(=O)c3c[nH]c4c(F)cccc34)n2)o1 [ARI-145, (4-(5-(aminomethyl)-1,3,4-oxadiazol-2-yl)thiazol-2-yl)(7-fluoro-1H-indol-3-yl)methanone]	170	–	most active among the tested oxadiazole compounds
NCc1nc(-c2csc(C(=O)c3c[nH]c4c(F)cccc34)n2)no1 [ARI-146, (4-(5-(aminomethyl)-1,2,4-oxadiazol-3-yl)thiazol-2-yl)(7-fluoro-1H-indol-3-yl)methanone]	374	–	–
Nc1nnc(-c2csc(C(=O)c3c[nH]c4ccc(F)cc34)n2)o1 [ARI-148, (4-(5-amino-1,3,4-oxadiazol-2-yl)thiazol-2-yl)(5-fluoro-1H-indol-3-yl)methanone]	282	–	–
CCC(=O)c1csc(C(=O)c2c[nH]c3cc(F)c(F)cc23)n1 [ARI-149, 1-(2-(5,6-difluoro-1H-indole-3-carbonyl)thiazol-4-yl)propan-1-one]	132	0.6	–
